Experimental data: ChEMBL document CHEMBL4602676, “Discovery and Development of 3-(6-Chloropyridine-3-yloxymethyl)-2-azabicyclo[3.1.0]hexane Hydrochloride (SUVN-911): A Novel, Potent, Selective, and Orally Active Neuronal Nicotinic Acetylcholine α4β2 Receptor Antagonist for the Treatment of Depression” (J Med Chem, 2020)

What was measured:
Rattus norvegicus [1] = assay: Antidepressant activity in Wistar rat assessed as immobility time at 45 mg/kg, ip measured for 5 mins by forced swim test (reference value: 271.9 +/- 7.2 sec); format: functional
[2] = Half life in Wistar rat at 10 ml/kg, po or 2 ml/kg, iv measured upto 24 hrs by LC-MS/MS analysis; format: ADME, organism-based; conditions: in vivo
[3] = Metabolic stability in human liver microsomes assessed as compound metabolism incubated for 30 mins in presence of NADPH by LC-MS/MS analysis; format: ADME, Microsome; conditions: read-out: Drug metabolism
[4] = AUC in Wistar rat at 10 ml/kg, po or 2 ml/kg, iv measured upto 24 hrs by LC-MS/MS analysis; format: ADME, organism-based; conditions: in vivo
Cytochrome P450 3A4 = Cytochrome P450 3A4 (Homo sapiens, UniProt P08684); assay: Inhibition of CYP3A4 in human liver microsomes using midazolam as substrate incubated for 2 min in presence of NADPH by LC-MS/MS analysis; format: ADME
Chain of Cytochrome P450 3A4 (P08684 whole entry): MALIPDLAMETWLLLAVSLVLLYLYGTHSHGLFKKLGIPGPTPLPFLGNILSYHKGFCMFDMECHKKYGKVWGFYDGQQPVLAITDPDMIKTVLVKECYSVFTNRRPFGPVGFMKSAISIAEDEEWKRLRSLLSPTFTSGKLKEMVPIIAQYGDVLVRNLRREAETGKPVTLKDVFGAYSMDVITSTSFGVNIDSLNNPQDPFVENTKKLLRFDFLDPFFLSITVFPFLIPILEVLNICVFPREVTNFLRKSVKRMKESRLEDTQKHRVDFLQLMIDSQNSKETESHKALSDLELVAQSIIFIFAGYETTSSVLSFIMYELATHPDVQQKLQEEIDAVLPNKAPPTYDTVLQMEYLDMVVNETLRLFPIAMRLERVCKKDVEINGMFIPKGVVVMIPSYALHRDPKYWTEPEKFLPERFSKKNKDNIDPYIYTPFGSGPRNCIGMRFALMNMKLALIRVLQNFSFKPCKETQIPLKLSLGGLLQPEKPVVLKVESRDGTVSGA

[5] = Ratio of drug level in brain to plasma in Wistar rat at 10 ml/kg, po or 2 ml/kg, iv measured upto 24 hrs by LC-MS/MS analysis; format: ADME, organism-based; conditions: brain and plasma, read-out: BPR
[6] = Metabolic stability in rat liver microsomes assessed as compound metabolism incubated for 30 mins in presence of NADPH by LC-MS/MS analysis; format: ADME, Microsome; conditions: read-out: Drug metabolism
[7] = Oral bioavailability in Wistar rat at 10 ml/kg measured upto 24 hrs by LC-MS/MS analysis; format: ADME, organism-based; conditions: in vivo
Rattus norvegicus [8] = assay: Antidepressant activity in Wistar rat assessed as reduction in immobility at 3 mg/kg, po administrated for 3 days and measured for 5 mins by forced swim test relative to control; format: functional; design: scale not given: the % may be the effect or the level left
[9] = molecular target: Neuronal acetylcholine receptor; alpha4/beta2 (Homo sapiens, UniProt P17787+P43681); assay: Displacement of [3H]cytisine from human alpha4beta2 nAChR expressed in CHOK1 cell membrane by microbeta scintillation counting method; format: cell membranes, CHO-K1
Chain of Neuronal acetylcholine receptor; alpha4/beta2 (P17787 whole entry): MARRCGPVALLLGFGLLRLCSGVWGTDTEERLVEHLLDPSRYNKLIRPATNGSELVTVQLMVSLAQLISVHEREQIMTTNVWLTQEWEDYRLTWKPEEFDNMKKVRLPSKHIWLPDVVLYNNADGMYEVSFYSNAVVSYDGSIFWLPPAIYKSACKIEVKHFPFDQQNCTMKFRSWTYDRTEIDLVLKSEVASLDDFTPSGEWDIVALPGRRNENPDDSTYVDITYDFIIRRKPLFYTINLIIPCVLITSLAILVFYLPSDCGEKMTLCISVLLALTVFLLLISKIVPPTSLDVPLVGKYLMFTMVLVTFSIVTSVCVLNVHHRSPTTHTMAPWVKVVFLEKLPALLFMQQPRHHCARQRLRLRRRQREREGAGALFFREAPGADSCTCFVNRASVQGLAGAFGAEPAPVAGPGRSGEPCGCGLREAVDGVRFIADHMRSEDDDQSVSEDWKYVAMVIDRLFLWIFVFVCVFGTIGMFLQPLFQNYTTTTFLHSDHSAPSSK
Chain of Neuronal acetylcholine receptor; alpha4/beta2 (P43681 whole entry): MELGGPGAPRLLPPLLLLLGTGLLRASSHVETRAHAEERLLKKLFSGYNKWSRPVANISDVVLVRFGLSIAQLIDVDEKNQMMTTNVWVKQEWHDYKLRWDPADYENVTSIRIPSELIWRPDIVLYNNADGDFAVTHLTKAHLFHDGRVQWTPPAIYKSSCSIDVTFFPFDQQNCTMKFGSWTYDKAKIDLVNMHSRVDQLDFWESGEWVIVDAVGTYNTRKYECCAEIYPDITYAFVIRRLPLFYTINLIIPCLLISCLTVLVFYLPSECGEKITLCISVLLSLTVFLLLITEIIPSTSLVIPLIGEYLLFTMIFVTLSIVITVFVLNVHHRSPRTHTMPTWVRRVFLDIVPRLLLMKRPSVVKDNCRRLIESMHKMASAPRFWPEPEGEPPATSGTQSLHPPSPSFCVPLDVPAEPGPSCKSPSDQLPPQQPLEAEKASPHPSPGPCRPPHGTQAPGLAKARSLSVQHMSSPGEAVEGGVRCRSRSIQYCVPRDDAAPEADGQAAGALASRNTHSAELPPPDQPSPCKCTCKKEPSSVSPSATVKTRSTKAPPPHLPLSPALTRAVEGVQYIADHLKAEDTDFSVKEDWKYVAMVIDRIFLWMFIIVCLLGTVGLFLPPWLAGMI

[10] = Cmax in Wistar rat at 10 ml/kg, po or 2 ml/kg, iv measured upto 24 hrs by LC-MS/MS analysis; format: ADME, organism-based; conditions: in vivo
Cytochrome P450 2D6 = Cytochrome P450 2D6 (Homo sapiens, UniProt P10635); assay: Inhibition of CYP2D6 in human liver microsomes using dextromethorphan as substrate incubated for 12 min in presence of NADPH by LC-MS/MS analysis; format: ADME
Chain of Cytochrome P450 2D6 (P10635 whole entry): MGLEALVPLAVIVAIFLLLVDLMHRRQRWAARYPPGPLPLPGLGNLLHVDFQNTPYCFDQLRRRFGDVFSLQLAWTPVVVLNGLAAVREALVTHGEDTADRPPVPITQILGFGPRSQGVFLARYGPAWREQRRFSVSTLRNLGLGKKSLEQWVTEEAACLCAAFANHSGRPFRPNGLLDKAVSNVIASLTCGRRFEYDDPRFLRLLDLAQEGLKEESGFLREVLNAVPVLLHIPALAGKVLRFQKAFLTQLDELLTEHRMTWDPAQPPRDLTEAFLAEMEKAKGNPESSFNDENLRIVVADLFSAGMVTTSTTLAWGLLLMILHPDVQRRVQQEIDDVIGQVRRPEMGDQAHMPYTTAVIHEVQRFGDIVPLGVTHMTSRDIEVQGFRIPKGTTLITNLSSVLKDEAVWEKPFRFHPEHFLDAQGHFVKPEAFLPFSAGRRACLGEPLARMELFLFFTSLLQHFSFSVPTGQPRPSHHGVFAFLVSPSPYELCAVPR

[11] = molecular target: Neuronal acetylcholine receptor; alpha3/beta4 (Homo sapiens, UniProt P30926+P32297); assay: Displacement of [3H]epibatidine from human alpha3beta4 nAChR expressed in IMR32 cell membrane by microbeta scintillation counting method; format: cell membranes, IMR-32
Chain of Neuronal acetylcholine receptor; alpha3/beta4 (P30926 whole entry): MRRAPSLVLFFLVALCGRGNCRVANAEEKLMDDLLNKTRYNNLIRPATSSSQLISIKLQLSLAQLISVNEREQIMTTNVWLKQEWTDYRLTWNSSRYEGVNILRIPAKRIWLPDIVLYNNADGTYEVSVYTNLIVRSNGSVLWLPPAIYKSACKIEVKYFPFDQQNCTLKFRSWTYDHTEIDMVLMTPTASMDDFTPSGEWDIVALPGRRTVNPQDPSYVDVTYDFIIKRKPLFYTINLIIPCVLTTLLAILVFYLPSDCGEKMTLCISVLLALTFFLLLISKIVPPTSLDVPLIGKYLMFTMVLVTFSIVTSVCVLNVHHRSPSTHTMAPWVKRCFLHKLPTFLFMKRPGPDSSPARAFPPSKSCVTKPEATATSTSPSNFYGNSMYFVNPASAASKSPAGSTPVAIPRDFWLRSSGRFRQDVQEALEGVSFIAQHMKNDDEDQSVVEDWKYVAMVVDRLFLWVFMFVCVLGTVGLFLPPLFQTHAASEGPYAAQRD
Chain of Neuronal acetylcholine receptor; alpha3/beta4 (P32297 whole entry): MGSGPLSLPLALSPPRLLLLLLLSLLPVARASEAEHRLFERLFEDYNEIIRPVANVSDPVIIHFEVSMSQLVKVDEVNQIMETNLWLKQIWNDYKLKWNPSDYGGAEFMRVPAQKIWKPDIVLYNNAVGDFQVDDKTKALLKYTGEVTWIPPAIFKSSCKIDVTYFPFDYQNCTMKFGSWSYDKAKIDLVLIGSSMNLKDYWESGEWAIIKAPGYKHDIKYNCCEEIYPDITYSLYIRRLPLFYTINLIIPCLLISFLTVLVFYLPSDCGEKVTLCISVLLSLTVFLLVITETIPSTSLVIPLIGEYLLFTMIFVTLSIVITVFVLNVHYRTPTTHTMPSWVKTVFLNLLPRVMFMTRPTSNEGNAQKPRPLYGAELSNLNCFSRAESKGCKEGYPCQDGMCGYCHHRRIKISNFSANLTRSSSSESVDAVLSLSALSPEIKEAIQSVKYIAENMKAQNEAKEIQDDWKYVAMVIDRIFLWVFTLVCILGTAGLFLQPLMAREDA

Rattus norvegicus [12] = assay: Antidepressant activity in Wistar rat assessed as reduction in immobility at 1 mg/kg, po administrated for 3 days and measured for 5 mins by forced swim test relative to control; format: functional; design: scale not given: the % may be the effect or the level left
Rattus norvegicus [13] = assay: Antidepressant activity in Wistar rat assessed as reduction in immobility at 10 mg/kg, po administrated for 3 days and measured for 5 mins by forced swim test relative to control; format: functional; design: scale not given: the % may be the effect or the level left

| SMILES | Time (Rattus norvegicus [1]) [s] | half-life [2] [h] | metabolised at 0.5 h [3] [%] | AUC at 24 h [4] [ng·h/mL] | IC50 (Cytochrome P450 3A4) [µM] | Kp at 24 h [5] | metabolised at 0.5 h [6] [%] | bioavailability [7] [%] | Activity (Rattus norvegicus [8]) [%] | Ki [9] [µM] | Cmax [10] [ng/mL] | IC50 (Cytochrome P450 2D6) [µM] | Ki [11] [µM] | Activity (Rattus norvegicus [12]) [%] | Activity (Rattus norvegicus [13]) [%] |
| --- | --- | --- | --- | --- | --- | --- | --- | --- | --- | --- | --- | --- | --- | --- | --- |
| CN(C)CCCN1c2ccccc2CCc2ccccc21 [IMIPRAMINE] | 176.5 | – | – | – | – | – | – | – | – | – | – | – | – | – | – |
| Cl.Clc1ncccc1OC[C@@H]1C[C@H]2C[C@H]2N1 | – | 2.15 | 29.5 | 2160 | > 45 | 3.6 | 14.9 | 54 | 24.7 | 0.0175 | 921 | > 42 | > 10 | 10 | 15.8 |
